The values that follow are results of earlier work, collected in patent publication US5258185A (priority 1989, dated 1993).

For data set [1] the following is noted: e.g. incorporation in melts of high molecular polyethylene glycols.
Assay in data set [2]: not given
This is another data set of the same source.

The mark [3] stands for this setting: extremely fine crystallizates, surface size 3 to 10 m^2 (DE-OS 23 48 334).

Take `COc1ccc(Cl)cc1C(=O)NCCc1ccc(S(=O)(=O)NC(=O)NC2CCCCC2)cc1` [Glibenclamide, N-4-(5-chloro-[2-methoxy-benzamido)ethyl]phenylisulfonyl-N'-cyclohexyl urea]: the “water solubility depending on pH” value (acidic range) is “virtually water-insoluble”. Also, the solubility in alcohol entry (alcohol) is on record as “only moderately soluble”. Also, the solubility in chloroform result (chloroform) is listed as “only moderately soluble”. Moreover, the solubility in ether entry (ether) was “virtually insoluble”. The “solubility and dissolution rate with increase in surface” value under setting [3] was “increase in solubility and dissolution rate”. Under “water”, the solubility in water result was “virtually insoluble”. The “effect of processing at elevated temperatures on stability” value in data set [1] is “detrimental to stability”. In data set [2] (setting [3]), the “bioavailability with increase in surface” value is reported as “improving the bioavailability”. Also, in data set [2] (micronized, mean particle size ±5 μm, above all in the presence of tensides), the “drug release and bioavailability of micronized glibenclamide” value was “improved drug release and bioavailability”.
